Laboratory results published in patent publication US4472433A, “Phenoxyphenyl acetic acids and their medicinal use” (Fujisawa Pharmaceutical Co., Ltd., priority 1978, dated 1984).

Key:
[1] = system: contraction induced by arachidonic acid; test: Arachidonic acid-induced contraction of isolated stomach fundus strip; parameters: species or system Sprague-Dawley rats; details: rat stomach fundus strip, arachidonic acid 1.0×10^-5 g/ml as spasmogen, compound added 15 minutes before
Description: The stomach was removed from Sprague-Dawley rats, weighing about 180 g., after the animals were fasted overnight. A strip of stomach fundus was suspended under initial tension of 0.6 g. in a 10 ml. organ bath containing Tyrode solution. Arachidonic acid (1.0×10^-5 g/ml.) was employed as the spasmogen. Several doses of the test compound were added to the individual bath fluid 15 minutes before the addition of arachidonic acid. The value of contraction induced by arachidonic acid was measured and plotted dose-activity curve. ED50 value of each test compound was obtained by interpolation from the dose-activity curve.

erythema = test: UV-induced erythema test (number of rats estimated as effective); assay type: in vivo, male Hartley rats; details: oral, ten rats per group, half 1 h before and half just after UV radiation, scored 2 h later
Description: Ten male 5 week old Hartley rats, each weighing about 350 g. were used per group. The backs of each animal were depilated 24 hours before the test. An adhesive tape with 3 small holes of 9 mm. diameter was placed on the depilated skin and then the animal was exposed to ultra-violet radiation from an ultra-violet lamp (500 W, manufactured by Engelhard Hanovia Inc.) at a distance of 13 cm. for 80 seconds. Two hours later, the degree of erythema was estimated on the basis of the following scores:
1.0: erythema with clear border,
0.5: erythema with unclear border,
The drugs were regarded as being effective when the total of 3 points was below 1.5.
Each dosage of the test compound was administered orally in a suspension form in 20 ml. of 0.5% methyl cellosolve aqueous solution. Half of the test sample was administered one hour before the radiation and the remaining half of the test solution was administered just after radiation.

writhing syndrome = test: Acetic acid-induced writhing syndrome; assay type: in vivo, male ddy strain mice; details: oral
Description: Male ddy strain mice, weighing 24.0-32.0 g, were used. Each dose group consisted of 10 animals. Writhing syndrome was produced by an intraperitoneal injection of 20 ml/kg of 0.6% acetic acid. […] The drug were given orally 60 minutes before acetic acid. The frequency of writhing syndrome for 10 minutes in the treated animals was compared with that in the control. Control animals received the vehicle.
The test substances, the compound obtained in the Example 5-(2) was suspended in 0.5% methylcellulose.
ED50 value was calculated according to the Litchfield-Wilcoxon's method with a computer program.

[2] = system: Brewer's yeast-induced hyperthermia; test: Brewer's yeast-induced hyperthermia (antipyretic effect); assay type: in vivo, male SD strain rats; details: oral; for ED50: Rattus norvegicus
Description: (§1) Male SD strain rats aged 6 weeks, weighing 164-235 g, were divided into 4 groups i.e. A, B, A' and B' of 10 animals each and were treated as shown below:
(§2) Group A saline 0.5% methylcellulose
(§3) Group B 5% Brewer's yeast
(§4) Group A' saline Test substance
(§5) Group B' 5% Brewer's yeast
(§6) The test substance or 0.5%MC were given orally to rats 4 hr after subcutaneous injection of 5% Brewer's yeast or saline. The rectal temperature was measured with a thermister probe inserted about 4.5-5.0 cm into the rectum 4 hr before, and 1 and 2 hr after the injection of test substance.
The antipyretic effect (%) of test substance on the Brewer's yeast-induced hyperthermia at 1 and 2 hr after the injection of test substance was calculated from the mean rectal temperature (rectal temp.) in each group by the following formula: [formula]
(§7) All experiments were performed at an ambient temperature of 22.0°-22.5° C.
(§8) Test substance, the compound obtained in the Example 5-(2) was dissolved in 0.5%MC at a dose of 10 mg/kg and 100 mg/kg, and also suspended in 0.5%MC at a dose of 320 mg/kg, and Brewer's yeast was suspended in saline.
(§9) Statistics: Calculation of ED50 value according to the Litchfield-Wilcoxon's method was performed with a computer program. Statistic analysis of difference between the control and treated groups according to the Student's t-test or Cochran-Cox test was performed with a computer program.

[3] = Rectal temperature in saline-treated rats; assay type: in vivo, male SD strain rats
Description: as §1, §2, §3, §4, §5, §6, §7, §8, §9

| SMILES | ED50 [1] [µg/mL] | Number of rats estimated as effective (erythema; 2 mg/kg) [rats] | Number of rats estimated as effective (erythema; 10 mg/kg) [rats] | further results |
| --- | --- | --- | --- | --- |
| Nc1c(CC(=O)[O-])cccc1Oc1c(Cl)cccc1Cl.[Na+] [Example 19, sodium 2-[2-amino-3-(2,6-dichlorophenoxy)phenyl]acetate] | 2.4 |  |  |  |
| Cc1ccccc1Oc1cccc(CC(=O)[O-])c1N.[Na+] [Example 10 - (2), sodium 2-[2-amino-3-(o-tolyloxy)phenyl]acetate] | 2.5 | 5 | 10 |  |
| Nc1c(CC(=O)[O-])cccc1Oc1ccccc1Cl.[Na+] [Example 5 - (2), sodium 2-[2-amino-3-(2-chlorophenoxy)phenyl]acetate] | 1.3 | 8 | 10 | ED50 (writhing syndrome; Mus musculus, 60 minutes before acetic acid, writhing 3 to 13 minutes after acetic acid, read-out: ED50 value (inhibition of writhing)): 19.6 mg/kg; effect on the writhing syndrome caused by acetic acid (writhing syndrome): dose-related inhibiting effects on the writhing syndrome; ED50 ([2]; 1 hr after administration): 37.3 mg/kg; ED50 ([2]; 2 hr after administration): 12.8 mg/kg; antipyretic effect on the Brewer's yeast-induced hyperthermia ([2]; all doses (10, 100, 320 mg/kg), 1 and 2 hr after administration): showed the antipyretic effect on the Brewer's yeast-induced hyperthermia; rectal temperature change ([3]; 10 mg/kg, 1 hr, slight but significant): produced a rise; rectal temperature change ([3]; 100 mg/kg, 2 hr): significant fall of the rectal temperature; rectal temperature change ([3]; 320 mg/kg, 1 hr, slight but significant): produced a fall of the rectal temperature; rectal temperature change ([3]; 320 mg/kg, 2 hr): significant fall of the rectal temperature |
| Nc1c(CC(=O)[O-])cccc1Oc1ccccc1F.[Na+] [Example 2 - (2), sodium 2-[2-amino-3-(2-fluorophenoxy)phenyl]acetate] | 1.6 | 9 | 10 |  |
| Nc1c(CC(=O)[O-])cccc1Oc1cc(Cl)cc(Cl)c1.[Na+] [Example 7 - (2), sodium 2-[2-amino-3-(3,5-dichlorophenoxy)phenyl]acetate] | 0.16 |  |  |  |
| Nc1c(CC(=O)[O-])cccc1Oc1cccc(Cl)c1.[Na+] [Example 4 - (2), sodium 2-[2-amino-3-(3-chlorophenoxy)phenyl]acetate] | 1.7 |  |  |  |
